From PMC10041525, “New Dual Inhibitors of Bacterial Topoisomerases with Broad-Spectrum Antibacterial Activity and In Vivo Efficacy against Vancomycin-Intermediate Staphylococcus aureus” (Journal of Medicinal Chemistry, 2023)
Values joined by “and” are separate entries in the source; they are usually repeats but may differ in a detail not shown here. Equal entries are not always repeated. Where two headings read alike, the source gives them in different places.

How the values were obtained:
E. coli ATCC 25922 = test: MIC broth microdilution (CLSI); format: cell-based; conditions: Escherichia coli, ATCC25922; read-out: MIC
Procedure: (§1) MICs (Tables 1 and S1–S3) were determined with a standard serial broth microdilution technique according to Clinical and Laboratory Standards Institute (CLSI) guidelines.[45] Cation-adjusted Mueller Hinton broth 2 (MHBII) was used for bacterial growth under standard laboratory conditions and for antimicrobial susceptibility tests. MHBII broth was prepared by dissolving 22 g of MHBII powder [containing beef extract (3 g), acid hydrolysate of casein (17.5 g), and starch (1.5 g); Becton Dickinson and Co.] in 1 L of water. To prepare MHBII agar, 14 g of agar (Bacto; Molar Chemicals) was added to 1 L of broth.
(§2) Bacterial strains were inoculated onto MHBII agar plates and grown overnight at 37 °C. Next, three individual colonies from each strain were inoculated into 1 mL of MHBII medium and propagated at 37 °C overnight, with agitation at 250 rpm. For Enterococcus sp., the cells were plated in brain–heart infusion [(BHI) medium] agar plates, and BHI broth was used to determine the MICs. […] The highest final DMSO concentration in the experiments was 0.64% (in the case of the 64 μg/mL concentration of the inhibitor). Following the dilutions, each well was seeded with 5 × 10^4 bacterial cells (in 100 μL final volume). Each measurement was performed in three parallel replicates, and to avoid possible edge effects in the microwell plates, the outside rows (A, H) were filled with sterile medium. Following the inoculations, the plates were covered with the lids and wrapped in polyethylene plastic bags, to minimize evaporation but to allow O2 transfer. The plates were incubated at 37 °C under continuous shaking at 150 rpm for 18 h. After incubation, the OD600 of each well was measured using a microplate reader (Synergy 2; Biotek). The MICs were defined as the antibiotic concentrations which inhibited the growth of the bacterial cultures; that is, the drug concentration where the average OD600 increment of the three technical replicates was below 1.5-fold the background OD increment.

[1] = system: Enterobacter cloacae spp. cloacae ATCC 13047; test: MIC broth microdilution (CLSI); format: cell-based; conditions: Enterobacter cloacae, ATCC13047; read-out: MIC
Procedure: as §1, §2

[2] = system: S. aureus (MRSA) ATCC 43300; test: MIC broth microdilution (CLSI); format: cell-based; conditions: Staphylococcus aureus
Procedure: as §1, §2

P. aeruginosa ATCC 27853 = test: MIC broth microdilution (CLSI); format: cell-based; conditions: Pseudomonas aeruginosa, ATCC27853; read-out: MIC
Procedure: as §1, §2

K. pneumoniae ATCC 10031 = test: MIC broth microdilution (CLSI); format: cell-based; conditions: Klebsiella pneumoniae, ATCC10031; read-out: MIC
Procedure: as §1, §2

DNA gyrase from E. coli = biological target: T1, DNA gyrase from E. coli (Escherichia coli, UniProt P0AES6); test: supercoiling HTS plate assay; format: biochemical; conditions: IC50 [nM] E. coli DNA gyrase
T1 construct: purchased Inspiralis
Procedure: (§3) All compounds were tested for their inhibitory activities against DNA gyrase and topo IV from E. coli in supercoiling and relaxation high-throughput plate assays, respectively. Our new series of inhibitors were then tested against a panel of Gram-positive and Gram-negative bacteria.
(§4) Seven concentrations of the inhibitors were used to determine IC50 values which were then calculated with GraphPad Prism 6.0 software. Three independent measurements were performed to determine IC50 values, and mean values are reported as the final result.

S. aureus ATCC 29213 = test: MIC broth microdilution (CLSI); format: cell-based; conditions: Staphylococcus aureus, ATCC29213
Procedure: as §1, with “Cation-adjusted” for “MICs (Tables 1 and S1–S3) were determined with a standard serial broth microdilution technique according to Clinical and Laboratory Standards Institute (CLSI) guidelines.[45] Cation-adjusted”
(§5) Bacterial strains were inoculated onto MHBII agar plates and grown overnight at 37 °C. Next, three individual colonies from each strain were inoculated into 1 mL of MHBII medium and propagated at 37 °C overnight, with agitation at 250 rpm. For Enterococcus sp., the cells were plated in brain–heart infusion [(BHI) medium] agar plates, and BHI broth was used to determine the MICs. […] Following the dilutions, each well was seeded with 5 × 10^4 bacterial cells (in 100 μL final volume). Each measurement was performed in three parallel replicates, and to avoid possible edge effects in the microwell plates, the outside rows (A, H) were filled with sterile medium. Following the inoculations, the plates were covered with the lids and wrapped in polyethylene plastic bags, to minimize evaporation but to allow O2 transfer. […] After incubation, the OD600 of each well was measured using a microplate reader (Synergy 2; Biotek).

A. baumannii ATCC 17978 = test: MIC broth microdilution (CLSI); format: cell-based; conditions: Acinetobacter baumannii, ATCC17978
Procedure: as §1, with “Cation-adjusted” for “MICs (Tables 1 and S1–S3) were determined with a standard serial broth microdilution technique according to Clinical and Laboratory Standards Institute (CLSI) guidelines.[45] Cation-adjusted”
as §5

[3] = system: Enterococcus faecalis ATCC 29212; test: MIC broth microdilution (CLSI); format: cell-based, E. faecalis; conditions: Enterococcus faecalis, ATCC29212; read-out: MIC
Procedure: as §1, §2

topo IV from E. coli = biological target: T2, topo IV from E. coli (Escherichia coli, UniProt P20083); test: relaxation HTS plate assay; format: biochemical; conditions: IC50
T2 construct: purchased Inspiralis
Procedure: as §3, §4

[4] = system: 3 sensitive and 7 MDR A. baumannii clinical isolates; test: MIC, Hungarian clinical isolates and controls (384-well); format: cell-based
[5] = system: Chinese hamster ovary K1 cells; test: in vitro micronucleus test; conditions: without S9, 1 µM
[6] = system: S. aureus ATCC 700699 (VISA); format: in vivo, female CD-1 mice
Procedure: The neutropenic mouse thigh infection model study was performed by NeoSome Life Sciences, LLC (Lexington, MA, USA) according to NeoSome Institutional Animal Care and Use Committee (IACUC) policies and guidelines as well as NIH’s Office of Laboratory Animal Welfare (OLAW) standards.
Neutropenic mouse thigh infection experiments were performed on female CD-1 mice (Charles River Laboratories, USA). To induce neutropenia, mice received two doses of cyclophosphamide on days −4 and −1 with 150 and 100 mg/kg delivered intraperitoneally (IP), respectively. The inoculum of the testing strain, S. aureus ATCC 700699-P1 (VISA), was prepared from overnight agar plate cultures. To prepare bacterial inoculums, a portion of the plate was resuspended in sterile saline and adjusted to an OD of 0.12 at 625 nm. Next, the resulted bacterial suspension was further diluted to reach an infecting inoculum of 6.0 × 10^5 cfu per each mouse. Plate counts of the inoculum were also performed in each case to confirm the inoculum concentration, and the actual inoculum size was 7.25 × 10^5 cfu/mouse. Mice were inoculated with 100 μL of the prepared bacterial suspension via an intramuscular injection into the right rear thigh. […] The test agent was then dosed via IV administration, to ensure optimal distribution, at 2, 10, and 18 h post-infection. Beginning at 2 h, post-infection mice were dosed with either test article or positive control antibiotic. Mice receiving test agents were dosed intravenously at 10 mL/kg. Linezolid was delivered as a SC dose to ensure optimized exposure, distribution, and efficacy. Four animals were dosed per group. One group of four mice was euthanized at the initiation of therapy (t = 2 h) and cfus determined. All remaining mice were euthanized at 26 h post-infection. At termination, thighs were aseptically excised, weighed, and homogenized to a uniform consistency in 2 mL of sterile saline. The homogenate was serially diluted and plated on bacterial growth media. The cfus were enumerated after overnight incubation.

T2 sequence (P0AFI2 whole entry): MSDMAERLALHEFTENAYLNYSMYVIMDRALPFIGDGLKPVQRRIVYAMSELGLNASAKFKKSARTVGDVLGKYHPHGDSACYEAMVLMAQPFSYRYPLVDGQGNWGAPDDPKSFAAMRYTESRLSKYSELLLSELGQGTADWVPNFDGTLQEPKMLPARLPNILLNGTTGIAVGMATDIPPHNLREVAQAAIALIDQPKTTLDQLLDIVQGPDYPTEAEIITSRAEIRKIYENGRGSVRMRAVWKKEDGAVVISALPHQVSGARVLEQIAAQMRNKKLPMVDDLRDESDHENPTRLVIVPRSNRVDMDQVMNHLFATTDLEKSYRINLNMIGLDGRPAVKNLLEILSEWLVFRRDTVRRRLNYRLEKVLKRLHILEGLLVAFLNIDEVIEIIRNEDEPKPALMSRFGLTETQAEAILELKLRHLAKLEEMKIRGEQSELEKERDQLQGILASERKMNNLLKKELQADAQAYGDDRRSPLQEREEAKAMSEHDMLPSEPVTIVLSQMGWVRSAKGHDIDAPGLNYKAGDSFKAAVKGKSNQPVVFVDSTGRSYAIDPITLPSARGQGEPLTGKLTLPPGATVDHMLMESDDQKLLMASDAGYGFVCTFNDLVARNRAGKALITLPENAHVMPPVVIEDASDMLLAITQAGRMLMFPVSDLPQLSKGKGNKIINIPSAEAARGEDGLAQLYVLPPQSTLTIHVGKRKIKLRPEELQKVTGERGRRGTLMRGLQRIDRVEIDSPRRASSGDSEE
T2 sequence (P20083 whole entry): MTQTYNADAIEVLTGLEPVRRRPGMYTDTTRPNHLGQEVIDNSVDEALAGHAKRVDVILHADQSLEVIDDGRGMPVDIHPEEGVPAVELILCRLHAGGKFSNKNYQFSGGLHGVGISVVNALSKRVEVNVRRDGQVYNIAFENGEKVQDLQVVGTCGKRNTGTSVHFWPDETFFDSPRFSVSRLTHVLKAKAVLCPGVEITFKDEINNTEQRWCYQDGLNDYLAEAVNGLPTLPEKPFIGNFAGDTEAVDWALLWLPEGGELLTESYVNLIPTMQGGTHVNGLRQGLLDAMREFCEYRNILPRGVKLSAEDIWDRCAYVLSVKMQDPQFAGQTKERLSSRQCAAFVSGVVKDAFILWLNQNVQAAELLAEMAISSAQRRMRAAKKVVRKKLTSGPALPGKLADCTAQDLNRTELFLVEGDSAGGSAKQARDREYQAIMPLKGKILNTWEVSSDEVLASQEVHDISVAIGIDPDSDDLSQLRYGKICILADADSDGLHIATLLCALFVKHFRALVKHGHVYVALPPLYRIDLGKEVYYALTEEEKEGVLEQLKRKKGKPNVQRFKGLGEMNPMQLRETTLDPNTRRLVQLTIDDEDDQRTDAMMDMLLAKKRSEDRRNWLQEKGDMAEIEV

COCCCNc1cc(C(=O)O)cc2sc(NC(=O)c3[nH]c(C)c(Cl)c3Cl)nc12.N [8c, 2-(3,4-Dichloro-5-methyl-1H-pyrrole-2-carboxamido)-4-((3-methoxypropyl)amino)benzo[d]thiazole-6-carboxylic Acid]
MIC (E. coli ATCC 25922): 8 µg/mL
MIC [1]: > 64 µg/mL
MIC ([2]; read-out: MIC): < 0.0312 µg/mL
MIC ([2]; read-out: MIC [µg/mL](S. aureus MRSA ATCC4330)): < 0.0312 µg/mL
MIC (P. aeruginosa ATCC 27853): 8 µg/mL
MIC (K. pneumoniae ATCC 10031): 2 µg/mL
IC50 (DNA gyrase from E. coli): 15 ± 5 nM
MIC (S. aureus ATCC 29213; read-out: MIC): < 0.0312 µg/mL
MIC (S. aureus ATCC 29213; read-out: MIC [µg/mL](S. aureus ATCC 29213)): < 0.0312 µg/mL
MIC (A. baumannii ATCC 17978; read-out: MIC): 2 µg/mL
MIC (A. baumannii ATCC 17978; read-out: MIC [µg/mL] (A. baumannii ATCC 17978)): 2 µg/mL
MIC [3]: > 0.0312 µg/mL
IC50 (topo IV from E. coli): 190 ± 6 nM

NCC[C@H](O)C(=O)N[C@@H]1C[C@H](N)[C@@H](O[C@H]2O[C@H](CN)[C@@H](O)[C@H](O)[C@H]2O)[C@H](O)[C@H]1O[C@H]1O[C@H](CO)[C@@H](O)[C@H](N)[C@H]1O [Amikacin, amikacin]
Cumulative % at MIC ([4]; n=10, MIC 2 µg/mL): 10%
Cumulative % at MIC ([4]; n=10, MIC 256 µg/mL): 100%

C[C@@H](O)[C@H]1C(=O)N2C(C(=O)O)=C(S[C@@H]3CN[C@H](CNS(N)(=O)=O)C3)[C@H](C)[C@H]12 [Doripenem, doripenem]
Cumulative % at MIC ([4]; n=10, MIC 0.0625 µg/mL): 10%
Cumulative % at MIC ([4]; n=10, MIC 2 µg/mL): 30%
Cumulative % at MIC ([4]; n=10, MIC 128 µg/mL): 60%
Cumulative % at MIC ([4]; n=10, MIC 256 µg/mL): 100%
Cumulative % at MIC ([4]; n=10, MIC […]): 20%

CO[C@@]12[C@H](COC(N)=O)C3=C(C(=O)C(C)=C(N)C3=O)N1C[C@@H]1N[C@@H]12 [Mitomycin C]
No. binucleate cells [5]: 920

NC[C@H]1O[C@H](O[C@H]2[C@H](O)[C@@H](O[C@H]3O[C@H](CO)[C@@H](O)[C@H](N)[C@H]3O)[C@H](N)C[C@@H]2N)[C@H](N)C[C@@H]1O [Tobramycin, tobramycin]
Cumulative % at MIC ([4]; n=10, MIC 1 µg/mL): 10%
Cumulative % at MIC ([4]; n=10, MIC 2 µg/mL): 20%
Cumulative % at MIC ([4]; n=10, MIC […] µg/mL): 70%
Cumulative % at MIC ([4]; n=10, MIC 256 µg/mL): 100%
Cumulative % at MIC ([4]; n=10, MIC […] µg/mL): 60%

CC(=O)NC[C@H]1CN(c2ccc(N3CCOCC3)c(F)c2)C(=O)O1 [linezolid]
Change in log10CFU/gr of thigh from 2 hour control ([6]; 50 mg/kg BID/SC): -0.61
Average log10CFU/gr of thigh ([6]; 50 mg/kg BID/SC, 26 h): 5.69
reduction compared to 2 hour infection controls ([6]; 50 mg/kg SC (BID)): 0.61 log10 cfu
reduction compared to 26 hour infection controls ([6]; 50 mg/kg SC (BID)): 2.41 log10 cfu
CFU/ g of thigh, single animals ([6]; linezolid group): 7.27E+05 and 7.86E+05 and 5.42E+05 and 1.84E+05
log CFU, single animals ([6]; linezolid group): 5.86 and 5.90 and 5.73 and 5.26

colistin
Cumulative % at MIC [4]: 50% and 70% and 100%
MIC inhibiting all strains ([4]; all 10 isolates): 4 µg/mL

imipenem/relebactame
Cumulative % at MIC ([4]; n=10, MIC 0.5 µg/mL): 20%
Cumulative % at MIC ([4]; n=10, MIC 2 µg/mL): 30%
Cumulative % at MIC ([4]; n=10, MIC 64 µg/mL): 70%
Cumulative % at MIC ([4]; n=10, MIC 128 µg/mL): 90%
Cumulative % at MIC ([4]; n=10, MIC 256 µg/mL): 100%

trimethoprim/sulfamethoxazole
Cumulative % at MIC ([4]; n=10, MIC […] µg/mL): 20%
Cumulative % at MIC ([4]; n=10, MIC 32 µg/mL): 70%
Cumulative % at MIC ([4]; n=10, MIC 64 µg/mL): 100%
